Reference: patent US9102701B2, “17-hydroxy-17-pentafluoroethyl-estra-4,9(10)-diene-11-ethynylphenyl derivatives, methods for the production thereof and use thereof for treating diseases” (Bayer Intellectual Property GmbH, priority 2009, dated 2015)
Converted amounts (≈) assume the structure as drawn.

Experiments:
[1] = biological target: T1, human progesterone receptor A (Homo sapiens, UniProt P06401); assay: Progesterone receptor-antagonistic action in stably transfected SK-N-MC cells, PR-A, MMTV-LUC reporter; assay type: cell-based; conditions: read-out: IC50 PR-A
T1 construct: expressed in transfected cells; host or cells: SK-N-MC human neuroblastoma cells, stably transfected with pRChPR-A-neo and pMMTV-LUC
T1 sequence (P06401 1-769 isoform P06401-2): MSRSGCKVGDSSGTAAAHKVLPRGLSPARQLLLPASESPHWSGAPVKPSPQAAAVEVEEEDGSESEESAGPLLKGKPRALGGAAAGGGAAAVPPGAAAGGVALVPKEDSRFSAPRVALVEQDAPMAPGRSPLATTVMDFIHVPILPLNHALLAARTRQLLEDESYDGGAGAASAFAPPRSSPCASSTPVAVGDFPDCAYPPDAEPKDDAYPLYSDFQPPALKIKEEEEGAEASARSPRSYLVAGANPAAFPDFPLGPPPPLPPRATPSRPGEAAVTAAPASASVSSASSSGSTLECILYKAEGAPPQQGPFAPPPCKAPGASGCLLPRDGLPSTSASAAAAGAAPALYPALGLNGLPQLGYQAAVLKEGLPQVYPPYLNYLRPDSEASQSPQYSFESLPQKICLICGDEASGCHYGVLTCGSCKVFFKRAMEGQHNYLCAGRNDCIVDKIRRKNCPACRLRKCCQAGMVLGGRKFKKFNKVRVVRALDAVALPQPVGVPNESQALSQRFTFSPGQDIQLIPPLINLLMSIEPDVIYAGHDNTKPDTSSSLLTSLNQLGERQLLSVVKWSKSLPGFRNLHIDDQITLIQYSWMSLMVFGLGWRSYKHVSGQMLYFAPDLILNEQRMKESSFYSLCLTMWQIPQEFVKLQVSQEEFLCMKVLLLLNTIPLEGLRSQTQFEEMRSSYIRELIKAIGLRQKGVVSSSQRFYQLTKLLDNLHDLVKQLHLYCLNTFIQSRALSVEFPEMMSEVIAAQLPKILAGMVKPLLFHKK
How it was run: (§1)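 SK-N-MC neuroblastoma cells stably expressing human PR-A or PR-B plus MMTV-LUC reporter, treated 24 h with compound (0.01 nmol/l upward). Antagonism measured against 0.1 nmol/l promegestone; luciferase in lysates as RLU, given as % efficacy and IC50 (agonism as EC50).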

[2] = Metabolic stability in human liver microsomes; assay type: in vitro ADME; conditions: for Predicted clearance Human: predicted in vivo clearance from liver microsomes, well-stirred model, 1 μM
Experimental: (§2) Determination of Metabolic Stability in Human and Rat Liver Microsomes
Isolated Human Liver Microsomes (HLM) were Used to Assess the Metabolic Stability of compounds of general formula I.
(§3) The incubations were conducted with 2.4 ml of HLM solution (protein content 0.5 mg/ml), 30 μl of the test compound (final concentration 1 μM) and 0.6 ml of the cofactor mixture (═NADPH-generating system composed of 3 IU glucose-6-phosphate dehydrogenase, 14.6 mg glucose-6-phosphate, 1.2 mg NADP) at 37° C. in 100 mM phosphate buffer at pH 7.4. Samples were taken at 6 time points (2-60 min) and precipitated with an equal volume of methanol, and the recovery of the test substances used in the supernatant was determined by LC-MS/MS analysis. The half-life of substance degradation determined therefrom was used to calculate what is called the intrinsic clearance of the substance in the liver microsome preparation.

[3] = Metabolic stability in rat liver microsomes; assay type: in vitro ADME
Experimental: as §2, §3

[4] = Solubility in aqueous medium at pH 7.4; assay type: physicochemical; conditions: for solubility: aqueous medium, pH 7.4, aqueous buffer
[5] = biological target: T2, human progesterone receptor B (Homo sapiens, UniProt P06401); assay: Progesterone receptor-antagonistic action in stably transfected SK-N-MC cells, PR-B, MMTV-LUC reporter; assay type: cell-based; conditions: read-out: IC50 PR-B
T2 construct: expressed in transfected cells; host or cells: SK-N-MC human neuroblastoma cells, stably transfected with pRChPR-B-neo and pMMTV-LUC
T2 sequence (P06401 1-933): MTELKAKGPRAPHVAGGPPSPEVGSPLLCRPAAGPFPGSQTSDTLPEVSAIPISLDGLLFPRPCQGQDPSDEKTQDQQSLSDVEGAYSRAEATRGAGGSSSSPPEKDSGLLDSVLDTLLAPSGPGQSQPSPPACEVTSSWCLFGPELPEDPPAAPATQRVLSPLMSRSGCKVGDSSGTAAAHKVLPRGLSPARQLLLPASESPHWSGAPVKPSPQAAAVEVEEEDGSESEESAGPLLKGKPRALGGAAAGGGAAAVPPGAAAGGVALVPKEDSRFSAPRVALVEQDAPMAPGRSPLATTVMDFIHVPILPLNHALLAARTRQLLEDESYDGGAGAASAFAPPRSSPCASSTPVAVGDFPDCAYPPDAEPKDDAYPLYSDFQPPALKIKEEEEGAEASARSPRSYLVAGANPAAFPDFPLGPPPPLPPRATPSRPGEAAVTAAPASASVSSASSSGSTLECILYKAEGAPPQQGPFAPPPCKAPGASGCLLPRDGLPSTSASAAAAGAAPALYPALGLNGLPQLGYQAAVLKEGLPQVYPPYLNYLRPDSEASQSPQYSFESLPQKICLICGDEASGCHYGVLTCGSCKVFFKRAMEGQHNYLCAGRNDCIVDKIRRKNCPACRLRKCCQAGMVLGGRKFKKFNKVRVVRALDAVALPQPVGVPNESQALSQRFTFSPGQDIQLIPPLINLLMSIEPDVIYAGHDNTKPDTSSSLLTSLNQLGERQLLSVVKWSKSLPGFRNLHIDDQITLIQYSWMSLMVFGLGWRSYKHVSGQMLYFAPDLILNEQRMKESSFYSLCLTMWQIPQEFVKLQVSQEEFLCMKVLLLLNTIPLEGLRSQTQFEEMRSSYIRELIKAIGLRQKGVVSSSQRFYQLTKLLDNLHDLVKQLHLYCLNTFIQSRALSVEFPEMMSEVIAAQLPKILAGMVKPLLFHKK
How it was run: as §1

[6] = system: pregnant rats; assay: Abortion test on female rats; assay type: in vivo; conditions: d5-d7 p.c., autopsy d9 p.c.
Experimental: Abortion Test on Female Rats
The action of progesterone and of the progesterone receptor is a fundamental precondition for successful pregnancy or gestation in mammals. The progesterone-antagonistic action of the inventive compounds was tested on pregnant rats (6 rats per group) on days 5 to 7 post coitum under conventional housing and feeding conditions.
After successful mating, the pregnant animals (presence of sperm in the vaginal smear on day 1 of pregnancy=d1 p.c.) were randomized and divided into the treatment group and the control group. The animals then each received subcutaneously or orally 0.15; 0.5; 1.5 or 5 mg/kg of the test compound or 1.0 ml/kg of vehicle (benzyl benzoate/castor oil: 1+4 [v/v]) daily from day 5 to day 7 (d5−d7 p.c.).
Autopsy was conducted on day 9 (d9 p.c.). As a characteristic of progesterone receptor-antagonistic action, the uterus was examined for the presence of nidation sites. Complete absence, or else the presence of pathological, haemorrhagic or otherwise abnormal nidation sites, on day 9 (d9 p.c.) was considered as abortion.

[7] = Clearance and half-life after intravenous administration in rats; assay type: in vivo; conditions: i.v. bolus 0.3-0.5 mg/kg; for CLblood: female rats
Experimental: Determination of Clearance and of Half-Life after Intravenous Administration in Rats
The determination of the in vivo clearance and half-life of test substances was conducted in female rats with a body weight of approx. 200-250 g. For this purpose, the test substances (in a cassette test up to 3 different substances per animal) were administered intravenously (i.v.) into the tail vein in dissolved form at a dose of 0.3-0.5 mg/kg as a bolus in a volume of 2 ml/kg, using compatible solubilizers such as PEG400 and/or ethanol in a compatible amount. A polyurethane catheter in the jugular vein was used to take approx. 0.2 ml blood samples at the time points of 2 min, 8 min, 15 min, 30 min, 45 min, 1 h, 2 h, 4 h, 6 h, 8 h, 24 h. The blood samples were stored without shaking in lithium heparin tubes (Monovettes® from Sarstedt) and centrifuged at 3000 rpm for 15 min. An aliquot of 100 μl was taken from the supernatant (plasma) and precipitated by adding 400 μl of cold methanol. The precipitated samples were frozen at −20° C. overnight, then centrifuged again at 3000 rpm for 15 min, before 150 μl of the clear supernatant were removed to determine the concentration. The analysis was effected by means of an Agilent 1200 HPLC system with connected LC-MS/MS detection.
Calculation of the PK Parameters (Via Nonlinear Regression by PK Calculation Software):
CLplasma: total plasma clearance of the test substance (in l*kg/h),
where CLplasma=dose/AUCinf;
AUCinf: extrapolated area under the plasma concentration-time curve (in μg*h/l);
CLblood: total blood clearance of the test substance (in l*kg/h), where (CLblood=CLplasma*Cp/Cb);
Cb/Cp: ratio of the blood to plasma concentration distribution of the test substance;
T½: terminal half-life of the test substance (in h).

With C[C@]12C[C@H](c3ccc(CO)cc3)C3=C4CCC(=O)C=C4CC[C@H]3[C@@H]1CC[C@@]2(O)C(F)(F)C(F)(F)F [Ref. 1*, (8S,11R,13S,14S,17S)-17-hydroxy-11-[4-(hydroxymethyl)phenyl]-13-methyl-17-pentafluoroethyl-1,2,6,7,8,11,12,13,14,15,16,17-dodecahydrocyclopenta[a]phenanthren-3-one, reference compound] as the compound, how does the IC50 [1] read?
Its IC50 is 400 pM.

And the “Predicted Fmax (maximum oral bioavailability) Human” value ([2]; calculated from liver microsome data)?
Its value is 42%.

What about the “Predicted clearance Human” value [2] of the same compound?
The value was 12 mL/min/kg.

And the “predicted maximum bioavailability in rats (in words)” value [3]?
Its value is “good”.

And the solubility [4]?
Its solubility is 17 µg/mL (≈ 34.2 µM).

What about the IC50 [5] of the same compound?
Its IC50 is 300 pM.

With C[C@]12C[C@H](c3ccc(C#Cc4ccc(C(=O)O)cc4)cc3)C3=C4CCC(=O)C=C4CC[C@H]3[C@@H]1CC[C@@]2(O)C(F)(F)C(F)(F)F [Example 16, 4-[4-((8S,11R,13S,14S,17S)-17-hydroxy-13-methyl-3-oxo-17-pentafluoroethyl-2,3,6,7,8,11,12,13,14,15,16,17-dodecahydro-1H-cyclopenta[a]phenanthren-11-yl)phenylethynyl]benzoic acid] as the compound, how does the IC50 [1] read?
The IC50 was 100 pM.

And the Abortion rate ([6]; daily dose 0.5 mg/kg p.o.)?
Its Abortion rate is 0%.

And the Abortion rate ([6]; daily dose 1.5 mg/kg p.o.)?
Its Abortion rate is 16.7%.

And the Abortion rate ([6]; daily dose 5.0 mg/kg p.o.)?
Its Abortion rate is 100%.

And the “Predicted clearance Human” value [2]?
The value was 5.5 mL/min/kg.

What about the CLblood [7] of the same compound?
Its CLblood is 35 ± 8.3 mL/min/kg.

What about the “solubility (in words)” value ([4]; aqueous medium under physiological conditions) of the same compound?
Its value is “improved solubility”.

What about the solubility [4] of the same compound?
The solubility was 204 µg/mL (≈ 334 µM).

And the IC50 [5]?
Its IC50 is 50 pM.

With C[C@]12C[C@H](c3ccc(C#C/C=C/C#N)cc3)C3=C4CCC(=O)C=C4CCC3C1CC[C@@]2(O)C(F)(F)C(F)(F)F (stereo partly drawn) [Example 4, (E)-5-[4-((8S,11R,13S,14S,17S)-17-hydroxy-13-methyl-3-oxo-17-pentafluoroethyl-2,3,6,7,8,11,12,13,14,15,16,17-dodecahydro-1H-cyclopenta[a]phenanthren-1′-yl)phenyl]pent-2-en-4-ynenitrile] as the compound, how does the IC50 [1] read?
The IC50 was 200 pM.

And the “Predicted clearance Human” value [2]?
The value was 1.5 mL/min/kg.

And the CLblood [7]?
Its CLblood is 55 ± 21.7 mL/min/kg.

What about the half-life ([7]; female, rat, plasma, iv, read-out: t1/2 (terminal half-life)) of the same compound?
Its half-life is at least 1 h.

What about the solubility [4] of the same compound?
Its solubility is 8 µg/mL (≈ 14.8 µM).

What about the IC50 [5] of the same compound?
Its IC50 is 100 pM.
